Tests used:
[1] = target: xanthine oxidase (XO) (Bos taurus, UniProt P80457); test: Xanthine oxidase inhibitory activity; assay type: biochemical
[2] = target: T1, alpha-amylase (Sus scrofa, UniProt P00690); test: Alpha-amylase inhibitory activity; assay type: biochemical; settings: qualitative statement
T1 sequence (P00690 16-511): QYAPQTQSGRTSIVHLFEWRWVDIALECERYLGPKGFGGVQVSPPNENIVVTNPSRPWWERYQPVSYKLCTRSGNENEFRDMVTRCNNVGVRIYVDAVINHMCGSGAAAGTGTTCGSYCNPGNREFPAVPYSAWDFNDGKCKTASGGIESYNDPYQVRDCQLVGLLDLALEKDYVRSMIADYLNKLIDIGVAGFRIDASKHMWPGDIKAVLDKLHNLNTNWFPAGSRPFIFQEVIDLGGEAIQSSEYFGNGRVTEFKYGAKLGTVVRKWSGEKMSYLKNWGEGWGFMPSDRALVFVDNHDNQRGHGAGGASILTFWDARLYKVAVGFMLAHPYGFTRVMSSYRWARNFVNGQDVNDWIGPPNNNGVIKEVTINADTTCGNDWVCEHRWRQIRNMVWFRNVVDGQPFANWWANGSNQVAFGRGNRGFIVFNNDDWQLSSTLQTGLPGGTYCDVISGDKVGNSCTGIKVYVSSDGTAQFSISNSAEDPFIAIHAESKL

Chain of xanthine oxidase (XO) (P80457 2-1332 limits assumed): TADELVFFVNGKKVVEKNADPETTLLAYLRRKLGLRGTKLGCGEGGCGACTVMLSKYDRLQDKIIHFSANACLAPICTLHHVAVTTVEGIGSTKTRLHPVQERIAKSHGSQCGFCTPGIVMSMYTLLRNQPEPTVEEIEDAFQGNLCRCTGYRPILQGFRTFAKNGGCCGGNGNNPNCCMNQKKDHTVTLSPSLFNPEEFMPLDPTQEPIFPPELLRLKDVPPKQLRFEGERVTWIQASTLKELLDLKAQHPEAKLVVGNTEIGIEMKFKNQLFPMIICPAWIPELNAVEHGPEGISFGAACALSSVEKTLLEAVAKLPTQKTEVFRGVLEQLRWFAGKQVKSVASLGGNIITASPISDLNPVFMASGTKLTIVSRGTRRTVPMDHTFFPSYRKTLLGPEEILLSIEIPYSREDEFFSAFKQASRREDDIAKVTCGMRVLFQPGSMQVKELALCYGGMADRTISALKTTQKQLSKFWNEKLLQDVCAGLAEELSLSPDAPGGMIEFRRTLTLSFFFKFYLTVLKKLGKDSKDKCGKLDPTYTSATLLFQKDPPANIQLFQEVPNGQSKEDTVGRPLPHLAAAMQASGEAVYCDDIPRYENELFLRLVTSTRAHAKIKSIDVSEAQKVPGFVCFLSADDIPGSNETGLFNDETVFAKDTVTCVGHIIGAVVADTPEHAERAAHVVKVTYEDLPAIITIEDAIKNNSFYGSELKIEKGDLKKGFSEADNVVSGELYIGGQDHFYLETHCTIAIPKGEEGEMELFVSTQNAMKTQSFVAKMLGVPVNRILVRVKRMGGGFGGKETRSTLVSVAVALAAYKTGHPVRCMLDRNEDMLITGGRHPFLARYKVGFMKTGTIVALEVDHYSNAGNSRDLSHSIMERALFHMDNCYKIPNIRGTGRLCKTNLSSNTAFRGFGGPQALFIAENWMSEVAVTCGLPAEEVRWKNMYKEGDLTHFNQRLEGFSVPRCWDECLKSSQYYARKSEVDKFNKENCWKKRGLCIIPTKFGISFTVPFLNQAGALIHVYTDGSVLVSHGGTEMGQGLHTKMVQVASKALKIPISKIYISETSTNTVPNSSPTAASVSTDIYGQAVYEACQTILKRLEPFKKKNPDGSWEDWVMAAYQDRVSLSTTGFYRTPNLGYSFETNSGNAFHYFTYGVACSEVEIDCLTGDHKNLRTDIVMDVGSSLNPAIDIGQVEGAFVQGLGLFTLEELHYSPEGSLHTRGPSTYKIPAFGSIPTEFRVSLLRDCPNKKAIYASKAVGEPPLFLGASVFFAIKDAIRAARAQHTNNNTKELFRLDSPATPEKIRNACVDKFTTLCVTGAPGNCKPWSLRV

Row | Molecule | XO inhibitory activity (in words) ([1]; qualitative statement) | Alpha-amylase inhibitory activity (in words) [2] | also measured
1 | 2-hydroxyacetophenone [F2] | active |  | 
2 | CC[C@H](CC[C@@H](C)[C@H]1CC[C@H]2[C@@H]3CC=C4C[C@@H](O)CC[C@]4(C)[C@H]3CC[C@]12C)C(C)C [F7, β-sitosterol] |  | more active against alpha-amylase as compared to the parent fraction | 
3 | C[C@@H]1O[C@@H](OC[C@H]2O[C@@H](Oc3c(-c4ccc(O)c(O)c4)oc4cc(O)cc(O)c4c3=O)[C@H](O)[C@@H](O)[C@@H]2O)[C@H](O)[C@H](O)[C@H]1O [F9, rutin] | active |  | EC50 [1]: 17.5 µM
4 | O=c1c(O)c(-c2ccc(O)c(O)c2)oc2cc(O)cc(O)c12 [F10, quercetin] |  |  | XO inhibitory activity (in words) ([1]; qualitative statement in text, listed as Quercetin): highest inhibitory activity; XO inhibitory activity (in words) ([1]; qualitative statement in text, listed as quercetin): active
5 | C=C(C)[C@@H]1CC[C@]2(C)CC[C@]3(C)[C@H](CC[C@@H]4[C@@]5(C)CC[C@H](O)C(C)(C)[C@@H]5CC[C@]43C)[C@@H]12 [F11, lupeol] |  | more active against alpha-amylase as compared to the parent fraction | 
